Source: patent US11739261B2, “Fluorescent probes for acid detection” (THE HONG KONG UNIVERSITY OF SCIENCE AND TECHNOLOGY, priority 2019, dated 2023)

Assay: Acid response study of TPI-C in the aggregation state (PL intensity)
Format: physicochemical
Protocol: FIGS. 1A-1C depict PL spectra of TPI-C (10 μM in THF/hexane mixtures with fH=99%) with adding (1A) HCOOH at different concentrations; (1B) CH3COOH at different concentrations; and (1C) CF3COOH at different concentrations.
FIG. 1D is a graph of relative PL intensity (I/I0) at different acid concentrations (x-axis represents acid concentration at (a) 0 M, (b) 1×10^−20 M, (c) 1×10^−14 M and (d) 1×10^−8 M, respectively).
An acid response study of TPI-C in the aggregation state was performed first. The fluorescent intensity response of TPI-C was investigated by adding different acids with various concentrations. In general, the fluorescent intensity of TPI-C was enhanced upon adding the acid. TPI-C responded in this manner to the formic acid, acetic acid (AcOH) and trifluoroacetic acid (TFA) at concentrations as low as 10^−20 M. For the formic acid, its highest intensity enhancement was around 55% at the acid concentration level of 10^−20 M, as shown in FIG. 1A. When AcOH (1×10^−20 M, 1 μL) and TFA (1×10^−20 M, 1 μL) were added to the TPI-C solution, the intensity enhancement of TPI-C was around 120% (FIG. 1B) and 96% (FIG. 1C), respectively.

Q: With `CCCCCCCCn1c(-c2ccc(OC(=O)NCC)cc2)nc(-c2ccccc2)c1-c1ccccc1` [TPI-C] as the molecule, how does the fluorescent intensity enhancement (AcOH 1×10^−20 M, 1 μL added to TPI-C solution) read?
A: Its fluorescent intensity enhancement is “around 120%”.

Q: What about the fluorescent intensity enhancement (TFA 1×10^−20 M, 1 μL added to TPI-C solution) of the same molecule?
A: The fluorescent intensity enhancement was about 96%.

Q: And the fluorescent intensity enhancement (formic acid 10^−20 M, TPI-C 10 μM in THF/hexane fH=99%, highest enhancement)?
A: The fluorescent intensity enhancement was “around 55%”.

Q: What about the “acid concentration at which fluorescent intensity is enhanced (as low as)” value (formic acid, AcOH, TFA) of the same molecule?
A: The value was 10^−20 M.
